How the values were obtained:
[1] = target: C-C chemokine receptor type 10 (Homo sapiens) (UniProt P46092); experiment: Agonist activity at CCR10 (unknown origin)
[2] = target: C-C chemokine receptor type 10 (Homo sapiens) (UniProt P46092); experiment: Agonist activity at CCR10 (unknown origin); remark: listed apart in the source

C-C chemokine receptor type 10 (Homo sapiens), sequence (P46092 whole entry, looked up): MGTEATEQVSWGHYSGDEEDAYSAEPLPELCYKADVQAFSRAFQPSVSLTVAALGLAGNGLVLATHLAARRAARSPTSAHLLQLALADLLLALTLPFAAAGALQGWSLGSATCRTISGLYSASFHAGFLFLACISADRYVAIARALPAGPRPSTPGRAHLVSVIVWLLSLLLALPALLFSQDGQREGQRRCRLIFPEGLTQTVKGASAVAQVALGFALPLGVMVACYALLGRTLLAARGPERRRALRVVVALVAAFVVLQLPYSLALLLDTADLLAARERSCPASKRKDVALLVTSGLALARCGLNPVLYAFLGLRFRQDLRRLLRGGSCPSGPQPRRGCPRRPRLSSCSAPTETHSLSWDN

- EC50 [1]: > 10 µM
- IC50 [2]: > 10 µM
Compound: CC1=CCC[C@H]1NC(=O)Nc1ccc(Cl)c(S(=O)(=O)[C@@]2(C)CCOC2)c1O
